Assay results taken from ChEMBL document CHEMBL1131608, “Structure-activity relationships and molecular modeling of 3, 5-diacyl-2,4-dialkylpyridine derivatives as selective A3 adenosine receptor antagonists” (J Med Chem, 1998).

The molecules below were run against Adenosine receptor A2a (Rattus norvegicus) (UniProt P30543) (assay: Binding affinity towards adenosine A2A receptor by measuring its ability to displace [3H]-CGS- 21680 in rat striatal membranes at a concentration of 10e-4 M). Settings: Striatum, Membrane.
Adenosine receptor A2a (Rattus norvegicus), sequence (P30543 whole entry): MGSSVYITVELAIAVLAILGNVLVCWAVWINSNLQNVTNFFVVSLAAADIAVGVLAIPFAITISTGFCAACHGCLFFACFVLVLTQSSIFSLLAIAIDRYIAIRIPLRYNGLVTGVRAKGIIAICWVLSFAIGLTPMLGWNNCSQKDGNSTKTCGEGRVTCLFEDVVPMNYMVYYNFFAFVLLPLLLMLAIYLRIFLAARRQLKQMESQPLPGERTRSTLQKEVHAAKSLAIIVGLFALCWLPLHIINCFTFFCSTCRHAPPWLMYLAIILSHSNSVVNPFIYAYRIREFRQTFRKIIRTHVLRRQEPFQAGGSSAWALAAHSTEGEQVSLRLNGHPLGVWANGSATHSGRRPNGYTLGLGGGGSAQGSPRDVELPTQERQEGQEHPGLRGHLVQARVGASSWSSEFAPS
Format: cell membranes

inhibition | SMILES
7.98% | CCOC(=O)c1c(-c2ccccc2)nc(C)c(C(=O)SCCOC)c1CC
< 10% | CCO/C(O)=C1\C(C)=NC(c2ccccc2)=C(C(=O)OCc2ccccc2)C1C#Cc1ccccc1 (centres undefined)
12.8% | CCSC(=O)c1c(C)nc(-c2ccccc2)c(C(=O)Oc2ccccc2)c1CC
2.56% | CCOC(=O)c1c(C)nc(-c2ccccc2)c(C(=O)OCC)c1C=O
32% | CCOC(=O)C1=C(c2ccccc2)N=C(C)/C(=C(/O)OCC)C1C=O (centres undefined)
14.9% | CCOC(=O)c1c(-c2ccccc2)nc(C)c(C(=O)SCC)c1CC
10% | CCSC(=O)c1c(CC)nc(-c2ccccc2)c(C(=O)OCCO)c1CC
2.05% | CCCOC(=O)c1c(-c2ccccc2)nc(CC)c(C(=O)SCC)c1CCC
7.09% | CCOC(=O)c1c(-c2ccccc2)nc(CC)c(C(=O)O)c1CC
< 10% | CCCC1=NC(c2ccccc2)=C(C(=O)OCC)C(CC)/C1=C(\O)SCC (centres undefined)
13.4% | CCOC(=O)c1c(CC)nc(-c2ccccc2)c(C(=O)OCC)c1C
28.4% | CCOC(=O)c1c(C)nc(-c2ccccc2)c(C(=O)OCC)c1C
29.1% | CCOC(=O)C1=C(c2ccccc2)N=C(CC)/C(=C(/O)SCC)C1CC (centres undefined)
24.5% | CCCOC(=O)c1c(C)nc(-c2ccccc2)c(C(=O)OCC)c1C
22% | CCOC(=O)c1c(-c2ccccc2)nc(C2CCC2)c(C(=O)SCC)c1CC
< 10% | CCOC(=O)C1=C(c2ccccc2)N=C(C)/C(=C(/O)OCC)C1C(OC)OC (centres undefined)
12.6% | CCOC(=O)c1c(-c2ccccc2)nc(CCOC)c(C(=O)SCC)c1CC
26.1% | CCOC(=O)c1c(C2CCCC2)nc(CC)c(C(=O)SCC)c1CC
< 10% | CCCCc1nc(-c2ccccc2)c(C(=O)OCC)c(CC)c1C(=O)SCC
15.7% | CCCSC(=O)c1c(CC)nc(-c2ccccc2)c(C(=O)OCC)c1CC
7.53% | CCCc1c(C(=O)SCC)c(C)nc(-c2ccccc2)c1C(=O)OCC
4.77% | CCOC(=O)C1=C(c2ccccc2)N=C(C)/C(=C(/O)OCC)C1/C=C/c1ccccc1 (centres undefined)

Each molecule was assayed against T1, Adenosine receptor A1 (Rattus norvegicus) (UniProt P25099) (assay: Binding affinity towards adenosine A1 receptor by measuring its ability to displace [3H]-R-PIA in rat brain membranes at a concentration of 10e-4 M). Settings: not given.
T1 sequence (whole entry): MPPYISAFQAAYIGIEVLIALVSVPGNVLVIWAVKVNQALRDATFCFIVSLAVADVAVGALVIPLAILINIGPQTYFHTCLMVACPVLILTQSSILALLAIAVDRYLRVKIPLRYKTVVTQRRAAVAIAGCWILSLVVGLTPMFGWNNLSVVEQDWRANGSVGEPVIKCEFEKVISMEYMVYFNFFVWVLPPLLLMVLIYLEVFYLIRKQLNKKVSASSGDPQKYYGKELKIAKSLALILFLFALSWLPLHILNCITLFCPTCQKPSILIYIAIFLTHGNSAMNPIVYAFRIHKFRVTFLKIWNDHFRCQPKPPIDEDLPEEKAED
Format: cell membranes

inhibition | SMILES
36% | CCOC(=O)c1c(-c2ccccc2)nc(C)c(C(=O)SCCOC)c1CC
20% | CCSC(=O)c1c(C)nc(-c2ccccc2)c(C(=O)Oc2ccccc2)c1CC
9.56% | CCOC(=O)c1c(C)nc(-c2ccccc2)c(C(=O)OCC)c1C=O
26% | CCOC(=O)C1=C(c2ccccc2)N=C(C)/C(=C(/O)OCC)C1C=O (centres undefined)
14.8% | CCOC(=O)c1c(-c2ccccc2)nc(C)c(C(=O)SCC)c1CC
17.4% | CCSC(=O)c1c(CC)nc(-c2ccccc2)c(C(=O)OCCO)c1CC
15.6% | CCCOC(=O)c1c(-c2ccccc2)nc(CC)c(C(=O)SCC)c1CCC
4.25% | CCOC(=O)c1c(-c2ccccc2)nc(CC)c(C(=O)O)c1CC
26% | CCCC1=NC(c2ccccc2)=C(C(=O)OCC)C(CC)/C1=C(\O)SCC (centres undefined)
10.3% | CCOC(=O)c1c(CC)nc(-c2ccccc2)c(C(=O)OCC)c1C
34% | CCOC(=O)C1=C(c2ccccc2)N=C(CC)/C(=C(/O)SCC)C1CC (centres undefined)
5.05% | CCCOC(=O)c1c(C)nc(-c2ccccc2)c(C(=O)OCC)c1C
30% | CCOC(=O)c1c(-c2ccccc2)nc(C2CCC2)c(C(=O)SCC)c1CC
32% | CCOC(=O)C1=C(c2ccccc2)N=C(C)/C(=C(/O)OCC)C1C(OC)OC (centres undefined)
10.1% | CCOC(=O)c1c(-c2ccccc2)nc(CCOC)c(C(=O)SCC)c1CC
55.3% | CCOC(=O)c1c(C2CCCC2)nc(CC)c(C(=O)SCC)c1CC
40.3% | CCCCc1nc(-c2ccccc2)c(C(=O)OCC)c(CC)c1C(=O)SCC
8.22% | CCCSC(=O)c1c(CC)nc(-c2ccccc2)c(C(=O)OCC)c1CC
29% | CCCc1c(C(=O)SCC)c(C)nc(-c2ccccc2)c1C(=O)OCC

The molecules below were run against T2, Adenosine receptor A3 (Homo sapiens) (UniProt P0DMS8) (assay: Binding affinity towards adenosine A3 receptor by measuring its ability to displace [125I]AB-MECA binding to membranes prepared from HEK293 cells). Settings: not given.
T2 sequence (whole entry): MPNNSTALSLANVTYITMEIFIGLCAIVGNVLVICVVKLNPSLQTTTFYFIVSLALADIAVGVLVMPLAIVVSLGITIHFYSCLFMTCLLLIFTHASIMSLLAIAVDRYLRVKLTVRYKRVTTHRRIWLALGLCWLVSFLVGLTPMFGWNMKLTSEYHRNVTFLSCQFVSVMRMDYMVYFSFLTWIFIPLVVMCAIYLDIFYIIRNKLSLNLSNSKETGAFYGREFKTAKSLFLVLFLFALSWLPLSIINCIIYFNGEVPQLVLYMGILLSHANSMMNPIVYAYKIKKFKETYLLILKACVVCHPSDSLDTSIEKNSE
Format: cell membranes

Ki | SMILES
165 nM | CCOC(=O)c1c(-c2ccccc2)nc(C)c(C(=O)SCCOC)c1CC
2610 nM | CCSC(=O)c1c(C)nc(-c2ccccc2)c(C(=O)Oc2ccccc2)c1CC
1980 nM | CCOC(=O)c1c(C)nc(-c2ccccc2)c(C(=O)OCC)c1C=O
15600 nM | CCOC(=O)C1=C(c2ccccc2)N=C(C)/C(=C(/O)OCC)C1C=O (centres undefined)
143 nM | CCOC(=O)c1c(-c2ccccc2)nc(C)c(C(=O)SCC)c1CC
188 nM | CCSC(=O)c1c(CC)nc(-c2ccccc2)c(C(=O)OCCO)c1CC
18.9 nM | CCCOC(=O)c1c(-c2ccccc2)nc(CC)c(C(=O)SCC)c1CCC
1280 nM | CCOC(=O)c1c(-c2ccccc2)nc(CC)c(C(=O)O)c1CC
2090 nM | CCCC1=NC(c2ccccc2)=C(C(=O)OCC)C(CC)/C1=C(\O)SCC (centres undefined)
121 nM | CCOC(=O)c1c(CC)nc(-c2ccccc2)c(C(=O)OCC)c1C
907 nM | CCOC(=O)C1=C(c2ccccc2)N=C(CC)/C(=C(/O)SCC)C1CC (centres undefined)
215 nM | CCCOC(=O)c1c(C)nc(-c2ccccc2)c(C(=O)OCC)c1C
145 nM | CCOC(=O)c1c(-c2ccccc2)nc(C2CCC2)c(C(=O)SCC)c1CC
15300 nM | CCOC(=O)C1=C(c2ccccc2)N=C(C)/C(=C(/O)OCC)C1C(OC)OC (centres undefined)
16.8 nM | CCOC(=O)c1c(-c2ccccc2)nc(CCOC)c(C(=O)SCC)c1CC
3380 nM | CCOC(=O)c1c(C2CCCC2)nc(CC)c(C(=O)SCC)c1CC
35 nM | CCCCc1nc(-c2ccccc2)c(C(=O)OCC)c(CC)c1C(=O)SCC
15.9 nM | CCCSC(=O)c1c(CC)nc(-c2ccccc2)c(C(=O)OCC)c1CC
194 nM | CCCc1c(C(=O)SCC)c(C)nc(-c2ccccc2)c1C(=O)OCC

Each molecule was assayed on HEK293 (assay: Selectivity for binding affinity towards A1 adenosine receptor in rat brain membrane and human A3 receptor expressed in HEK cells). Settings: not given.
Format: cell-based

SMILES | Ratio
CCOC(=O)c1c(-c2ccccc2)nc(C)c(C(=O)SCCOC)c1CC | > 500
CCSC(=O)c1c(C)nc(-c2ccccc2)c(C(=O)Oc2ccccc2)c1CC | > 40
CCOC(=O)c1c(C)nc(-c2ccccc2)c(C(=O)OCC)c1C=O | 4.8
CCOC(=O)C1=C(c2ccccc2)N=C(C)/C(=C(/O)OCC)C1C=O (centres undefined) | 6
CCOC(=O)c1c(-c2ccccc2)nc(C)c(C(=O)SCC)c1CC | 340
CCSC(=O)c1c(CC)nc(-c2ccccc2)c(C(=O)OCCO)c1CC | 93
CCCOC(=O)c1c(-c2ccccc2)nc(CC)c(C(=O)SCC)c1CCC | 830
CCOC(=O)c1c(-c2ccccc2)nc(CC)c(C(=O)O)c1CC | 3.3
CCCC1=NC(c2ccccc2)=C(C(=O)OCC)C(CC)/C1=C(\O)SCC (centres undefined) | > 20
CCOC(=O)c1c(CC)nc(-c2ccccc2)c(C(=O)OCC)c1C | 85
CCOC(=O)C1=C(c2ccccc2)N=C(CC)/C(=C(/O)SCC)C1CC (centres undefined) | > 50
CCCOC(=O)c1c(C)nc(-c2ccccc2)c(C(=O)OCC)c1C | 23
CCOC(=O)c1c(-c2ccccc2)nc(C2CCC2)c(C(=O)SCC)c1CC | > 500
CCOC(=O)C1=C(c2ccccc2)N=C(C)/C(=C(/O)OCC)C1C(OC)OC (centres undefined) | > 5
CCOC(=O)c1c(-c2ccccc2)nc(CCOC)c(C(=O)SCC)c1CC | 600
CCOC(=O)c1c(C2CCCC2)nc(CC)c(C(=O)SCC)c1CC | 16
CCCCc1nc(-c2ccccc2)c(C(=O)OCC)c(CC)c1C(=O)SCC | 1200
CCCSC(=O)c1c(CC)nc(-c2ccccc2)c(C(=O)OCC)c1CC | 520
CCCc1c(C(=O)SCC)c(C)nc(-c2ccccc2)c1C(=O)OCC | > 700
